Assay results: patent US20220275389A1, “MODIFIED EXOPOLYSACCHARIDE RECEPTORS FOR RECOGNIZING AND STRUCTURING MICROBIOTA” (Aarhus Universitet, priority 2019, published 2022)
“Also recorded” adds a separate entry of the source. Where two headings read alike, the source gives them in different places.

Assays:
[1] = biological target: Lotus japonicus EPR3 ectodomain (EPR3 ED, residues 33-232), wild type, EPR3 SEQ ID NO: 61 (Lotus japonicus, UniProt D3KU53); test: Microscale thermophoresis (MST) binding of EPS ligands to EPR3 ectodomain (ED); conditions: 100 nM EPR3 ED, pH 7.8, 25° C.; for Kd: 95% confidence interval, read-out: equilibrium dissociation constant (Kd)
Experimental: Expression and purification of L. japonicus ecotype Gifu EPR3 ectodomain (ED) was performed as described previously (Kawaharada, Y et al. Nature 2015 523: 308-312). In brief, DNA encoding residues 33-232 of EPR3 (corresponding to the EPR3 ED) containing an N-terminal gp67 secretion signal and a C-terminal 6×His-tag was codon-optimized for insect cell expression (GenScript) and inserted into the pOET2 vector (Oxford Expression Technologies). Baculoviruses, used for infecting Sf9 cells cultured in suspension in serum-free HyClone SFX-Insect medium (FisherScientific), were obtained using the flashBAC GOLD system (OET). Five days post inoculation, the media was dialyzed against buffer containing 50 mM Tris-HCl pH 8.0 and 200 mM NaCl before centrifugation and loaded on a HisTrap excel affinity column (GE Healthcare). The eluted protein was dialyzed against buffer containing 50 mM Tris-HCl pH 8.0 and 200 mM NaCl, and further purified on a HisTrap HP affinity column (GE Healthcare). For crystallization, the EPR3 ED was treated with PNGase F (1:15 w/w ratio) for 1 hour at room temperature and overnight at 4° C. to remove N-linked oligosaccharides. EPR3 ED was then purified on a Mono S 5/50 column (GE Healthcare) and eluted with a linear gradient of 50-300 mM NaCl and 50 mM Tris-HCl, pH 7.0. Both glycosylated and de-glycosylated EPR3 ED were finally purified on a Superdex 75 10/300 column (GE Healthcare) in gel filtration buffer containing 50 mM KH2-PO4 pH 7.8 and 200 mM NaCl (for microscale thermophoresis binding experiments) or 50 mM Tris-HCl pH 8.0 and 200 mM NaCl (for crystallization).
Low molecular mass (LMM) exopolysaccharides (EPS) were isolated from various rhizobial strains including Mesorhizobium loti strain R7A ndvB6, R. leguminosarum bv. viciae 3855 (this work) and Sinorhizobium meliloti B578 (Griffins, J. S. et al. Mol. Microbiol. 2008 69: 479-490) that were deficient in cyclic glucan production were grown on minimal media with glucose as the sole source of carbon. The LMM EPS was isolated from the bacterial culture supernatants and purified via sequential precipitation with 6 volumes of 99.8% EtOH (v/v), followed by 9 volumes EtOH (v/v) and purified by size exclusion chromatography (SEC) as previously described (Muszyński, A. et al. J. Biol. Chem. 2016 291: 20946-20961). O-acetyl groups were removed chemically by mild overnight treatment of native EPS samples with 12.5% NH4OH (Muszyński, A. et al. J. Biol. Chem. 2016 291: 20946-20961). […] The glycosyl composition and linkage was determined as previously described (Muszyński, A. et al. J. Biol. Chem. 2016 291: 20946-20961). […]

L. japonicus EPR3a ED = test: Microscale thermophoresis (MST) binding to EPR3a ED; conditions: for binding of EPR3a ED to polysaccharide (detectable or not): FIGS. 11I-11J
Experimental: Purified EPR3 was fluorescently labeled using the Monolith NT.115TM Protein Labelling Kit Blue NHS (NanoTemper Technologies) according to the manufacturer's instructions. All experiments were performed in MST buffer (50 mM K2PO4, pH 7.8, 500 mM NaCl, and 0.05% Tween-20) with a constant concentration of EPR3 ED (100 nM and ˜50% labelling efficiency) and dilution series of the various ligands. The samples were incubated for 30 minutes at room temperature before loaded into standard capillaries for measurements on a Monolith NT.115 TM instrument (NanoTemper Technologies) at 25° C., with blue LED power of 50% and MST power of 20%. To accurately measure the experimental errors and ensure data reproducibility, all MST binding experiments were performed with at least three independently purified samples of EPR3. At the highest ligand concentrations, weak ligand binding to the fluorescent label itself was occasionally observed. To accurately account for this unspecific binding ligand binding to 50 nM free fluorescent label was measured and this small background was subtracted contribution from all the respective MST binding measurements. The competition experiments were performed by pre-incubating labeled EPR3 ED with 250 μM R7A EPS or R7A exoU EPS and assessing the binding of EPR3 ED to titrated R7A exoU EPS or R7A EPS, respectively. Binding data were processed with the GraphPad Prism 7 software (GraphPad Software, Inc.) and the equilibrium dissociation constants (Kd) values (95% confidence interval) were calculated using the sigmoidal dose-response equations.
The EPR3a ED was expressed in insect cells, and the protein was purified as described in Example 1 (FIG. 11D).
MST experiments were performed as described in Example 2 (FIG. 11C, FIGS. 11E-11J).

[2] = test system: Lotus japonicus EPR3a ectodomain (EPR3a ED), wild type, EPR3a SEQ ID NO: 62; test: Microscale thermophoresis (MST) binding of polysaccharides to EPR3a ectodomain (ED); conditions: for Kd: FIGS. 11E-11H, preparation of FIG. 11D
Experimental: Low molecular mass (LMM) exopolysaccharides (EPS) were isolated from various rhizobial strains including Mesorhizobium loti strain R7A ndvB6, R. leguminosarum bv. viciae 3855 (this work) and Sinorhizobium meliloti B578 (Griffins, J. S. et al. Mol. Microbiol. 2008 69: 479-490) that were deficient in cyclic glucan production were grown on minimal media with glucose as the sole source of carbon. The LMM EPS was isolated from the bacterial culture supernatants and purified via sequential precipitation with 6 volumes of 99.8% EtOH (v/v), followed by 9 volumes EtOH (v/v) and purified by size exclusion chromatography (SEC) as previously described (Muszyński, A. et al. J. Biol. Chem. 2016 291: 20946-20961). O-acetyl groups were removed chemically by mild overnight treatment of native EPS samples with 12.5% NH4OH (Muszyński, A. et al. J. Biol. Chem. 2016 291: 20946-20961). Native and de-O-acetylated samples were verified via matrix-assisted laser desorption/ionization time of flight mass spectrometry (MALDI-TOF MS) analysis on Applied Biosystems AB SCIEX TOF/TOF 5800 system in either negative or positive reflector ionization modes. The glycosyl composition and linkage was determined as previously described (Muszyński, A. et al. J. Biol. Chem. 2016 291: 20946-20961).
Purified EPR3 was fluorescently labeled using the Monolith NT.115TM Protein Labelling Kit Blue NHS (NanoTemper Technologies) according to the manufacturer's instructions. […] To accurately account for this unspecific binding ligand binding to 50 nM free fluorescent label was measured and this small background was subtracted contribution from all the respective MST binding measurements. […] Binding data were processed with the GraphPad Prism 7 software (GraphPad Software, Inc.) and the equilibrium dissociation constants (Kd) values (95% confidence interval) were calculated using the sigmoidal dose-response equations. […]

[3] = FIGS. 11E-11H, n=3, EPR3a ED preparation of FIG. 11D (figure legend), read-out: equilibrium dissociation constant (Kd)

Lotus japonicus EPR3 ectodomain (EPR3 ED, residues 33-232), wild type, EPR3 SEQ ID NO: 61, sequence (D3KU53 entry or part of it): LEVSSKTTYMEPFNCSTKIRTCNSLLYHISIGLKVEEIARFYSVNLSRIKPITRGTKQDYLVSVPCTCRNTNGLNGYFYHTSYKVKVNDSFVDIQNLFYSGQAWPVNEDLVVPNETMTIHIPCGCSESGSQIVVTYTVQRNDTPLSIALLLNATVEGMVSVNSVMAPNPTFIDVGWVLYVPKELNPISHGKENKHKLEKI

S. meliloti EPS [listing 1 of 2 here] showed a Kd [1] of 222 ± 102 µM.
S. meliloti EPS [listing 2 of 2 here] was tested, and the Kd (L. japonicus EPR3a ED; [3]) was 937 ± 389 µM.
For `CC(=O)N[C@H]1[C@H](O[C@H]2[C@H](O)[C@@H](NC(C)=O)C(O)O[C@@H]2CO)O[C@H](CO)[C@@H](O[C@@H]2O[C@H](CO)[C@@H](O[C@@H]3O[C@H](CO)[C@@H](O)[C@H](O)[C@H]3NC(C)=O)[C@H](O)[C@H]2NC(C)=O)[C@@H]1O` (stereo partly shown) [chitotetraose], the binding ([2]; FIG. 11I, n=3) was “did not bind; also recorded: absence of binding”, the “binding of EPR3a ED to polysaccharide (detectable or not)” value (“binding … (detectable or not)” for short) (L. japonicus EPR3a ED; n=3) was “absence of binding” and the “binding … (detectable or not)” value (L. japonicus EPR3a ED; n=3, listed as chitin) was “did not bind”.
`O=C(O)[C@H]1O[C@@H](O[C@H]2[C@H](O)[C@@H](O)[C@@H](O[C@H]3[C@H](O)[C@@H](O)[C@H](OC[C@H]4O[C@@H](OC[C@H]5O[C@@H](O[C@H]6[C@H](O)[C@@H](O)[C@H](O[C@H]7[C@H](O)[C@@H](O)[C@H](O[C@H]8[C@@H](O)[C@@H](CO)OC(O)[C@@H]8O)O[C@@H]7CO)O[C@@H]6CO)[C@H](O)[C@@H](O)[C@@H]5O)[C@H](O)[C@@H](O)[C@@H]4O)O[C@@H]3CO)O[C@@H]2C(=O)O)[C@H](O)[C@@H]1O` (stereo partly shown) [R7A deOAc-EPS] gave a Kd ([2]; n=3, figure legend, read-out: equilibrium dissociation constant (Kd)) of 57.2 ± 15.6 µM, a Kd ([2]; read-out: equilibrium dissociation constant of Kd) of 57.2 ± 15.6 µM and a Kd [1] of 31.3 ± 11.7 µM.
`CC(=O)N[C@H]1[C@H](O[C@H]2[C@H](O)[C@@H](NC(C)=O)[C@H](O[C@H]3[C@H](O)[C@@H](NC(C)=O)C(O)O[C@@H]3CO)O[C@@H]2CO)O[C@H](CO)[C@@H](O[C@@H]2O[C@H](CO)[C@@H](O[C@@H]3O[C@H](CO)[C@@H](O[C@@H]4O[C@H](CO)[C@@H](O)[C@H](O)[C@H]4NC(C)=O)[C@H](O)[C@H]3NC(C)=O)[C@H](O)[C@H]2NC(C)=O)[C@@H]1O` (stereo partly shown) [C06, Chitohexose] was tested, and the binding [1] was “unable to bind”.
For “(2,3/3-OAc)β-D-RibfA-(1→4)-a-D-GlcpA-(1→4)-β-D-Glcp-(1→6)-(3OAc)β-D-Glcp-(1→6)-(2OAc)β-D-Glcp-(1→4)-(2/3OAc)β-D-Glcp-(1→4)-β-D-Glcp-(1→3)-β-D-Galp [R7A EPS] [listing 1 of 2 here]”, the Kd [1] was 38.1 ± 7.5 µM.
With “(2,3/3-OAc)β-D-RibfA-(1→4)-a-D-GlcpA-(1→4)-β-D-Glcp-(1→6)-(3OAc)β-D-Glcp-(1→6)-(2OAc)β-D-Glcp-(1→4)-(2/3OAc)β-D-Glcp-(1→4)-β-D-Glcp-(1→3)-β-D-Galp [R7A EPS] [listing 2 of 2 here]” the Kd (L. japonicus EPR3a ED; FIG. 11C, R^2=0.98, read-out: equilibrium dissociation constant (Kd)) was 25.6 µM and the Kd (L. japonicus EPR3a ED; [3]) was 44.4 ± 11.2 µM.
For maltodextrin, the “binding … (detectable or not)” value (L. japonicus EPR3a ED; n=3) was “did not bind; also recorded: absence of binding”.
